{"source": "the NIST ThermoML archive (doi:10.1016/j.jct.2012.09.011)", "assay": "cn = amount concentration of the nth substance listed, in mol/dm3", "settings": "310.15 K, 101 kPa, Liquid, Taylor dispersion method", "data": [{"smiles": "[Cl][Cd][Cl]", "note": "[cadmium chloride] + O", "values": [{"measurement": "binary diffusion coefficient", "setting": "c1 = 0", "result": "1.39e-09", "unit": "m2/s"}, {"measurement": "binary diffusion coefficient", "setting": "c1 = 0.001", "result": "1.34e-09", "unit": "m2/s"}, {"measurement": "binary diffusion coefficient", "setting": "c1 = 0.003", "result": "1.32e-09", "unit": "m2/s"}, {"measurement": "binary diffusion coefficient", "setting": "c1 = 0.005", "result": "1.28e-09", "unit": "m2/s"}, {"measurement": "binary diffusion coefficient", "setting": "c1 = 0.008", "result": "1.28e-09", "unit": "m2/s"}, {"measurement": "binary diffusion coefficient", "setting": "c1 = 0.01", "result": "1.28e-09", "unit": "m2/s"}, {"measurement": "binary diffusion coefficient", "setting": "c1 = 0.05", "result": "1.2e-09", "unit": "m2/s"}, {"measurement": "binary diffusion coefficient", "setting": "c1 = 0.1", "result": "1.2e-09", "unit": "m2/s"}, {"measurement": "binary diffusion coefficient", "setting": "c1 = 0.4", "result": "1.26e-09", "unit": "m2/s"}]}]}
